Reference: PubChem BioAssay (NCI)
Several values for one entry are separate records, joined by “and”; a condition that tells them apart may be missing. Equal entries are not always repeated.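 Values below derive from 48-hour exposures of cells grown in 96-well plates, with endpoints linearly interpolated between the two concentrations bracketing the appropriate inhibition level. GI50 marks 50% less growth. Definition used: TGI = concentration required for complete inhibition of growth.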

How the values were obtained:
Experiment in all cases: inhibition of tumour cell growth, NCI panel, 48 h
BT-549 breast = test system: BT-549 breast
EKVX NSCLC = test system: EKVX NSCLC
K-562 leukemia = test system: K-562 leukemia
M14 melanoma = test system: M14 melanoma
MDA-MB-435 = test system: MDA-MB-435
MOLT-4 leukemia = test system: MOLT-4 leukemia
NCI-H23 lung = test system: NCI-H23 lung
SF-539 CNS = test system: SF-539 CNS
SR leukemia = test system: SR leukemia
UACC-257 melanoma = test system: UACC-257 melanoma

| Compound | TGI (BT-549 breast) | TGI (EKVX NSCLC) | TGI (K-562 leukemia) | TGI (M14 melanoma) | TGI (MDA-MB-435) | TGI (MOLT-4 leukemia) | TGI (NCI-H23 lung) | TGI (SF-539 CNS) | TGI (SR leukemia) | TGI (UACC-257 melanoma) | GI50 (EKVX NSCLC) | GI50 (M14 melanoma) | GI50 (UACC-257 melanoma) | GI50 (BT-549 breast) | GI50 (MDA-MB-435) | GI50 (MOLT-4 leukemia) |
| --- | --- | --- | --- | --- | --- | --- | --- | --- | --- | --- | --- | --- | --- | --- | --- | --- |
| CCCCCCCCCCCC1=C(O)C(=O)C(CC2=C(O)C(=O)C(CCCCCCCCCCC)=C(O)C2=O)=C(O)C1=O | > 100 µM | > 100 µM | > 100 µM | > 100 µM | > 100 µM | > 100 µM | > 100 µM | > 100 µM | 42.4 µM | > 100 µM |  |  |  |  |  |  |
| O=c1[nH]ncc2[nH]c3c(c12)CCc1ccccc1-3 | > 100 µM | 30.2 µM | > 100 µM | > 100 µM | > 100 µM | 69.7 µM | > 100 µM | 42.1 µM | > 100 µM | > 100 µM |  |  |  |  |  |  |
| O=C1Nc2noc(=O)nc2NO1 | > 200 µM | > 200 µM | > 200 µM | > 200 µM | > 200 µM | > 200 µM | > 200 µM | > 200 µM |  | > 200 µM |  |  |  |  |  |  |
| Cc1cc(NC(=O)NC(=O)c2ccccc2NC(=O)CN(C)C)ccc1Oc1ncc(Br)cn1 | > 100 µM | > 100 µM | > 57.8 µM | > 57.4 µM | 3.09 µM | 59.8 µM | 65.9 µM | 10.6 µM | > 79.5 µM | > 100 µM |  |  |  |  |  |  |
| CC[C@]1(c2ccc3c(c2)OCO3)C=[N+]([O-])O[C@H](OC2CCCC2(c2ccccc2)c2ccccc2)[C@@H]1OC(C)=O (stereo partly specified) | 8.43 µM | 12.8 µM | > 100 µM | 4.84 µM | 4.1 µM | > 19.8 µM | 8.68 µM | > 100 µM | > 21.7 µM | 7.62 µM |  |  |  |  |  |  |
| C/C(=N\NC(=S)NC(C)(C)C)c1nc2ncccc2[nH]1 | 20.3 µM | > 65 µM | > 100 µM | > 100 µM | > 78.4 µM | 23.7 µM | > 100 µM | 13.6 µM | > 72.2 µM | > 100 µM |  |  |  |  |  |  |
| COc1ccc(C2C(=O)c3ccc(OC)cc3OC2c2cccnc2)cc1 (stereo unspecified) | > 100 µM | > 100 µM | > 100 µM | > 100 µM | > 100 µM | > 100 µM | > 100 µM | > 100 µM | > 100 µM | > 100 µM |  |  |  |  |  |  |
| O=C1/C(=C\c2cccc(Oc3ccccc3)c2)SC(c2ccccc2)N1c1cc(Cl)ccc1Cl (stereo unspecified) | > 100 µM | > 100 µM | > 100 µM | 84.4 µM | > 100 µM | > 100 µM | > 100 µM | 88.5 µM |  | > 100 µM |  |  |  |  |  |  |
| CCCCCCCCCCCCCCCCNc1nc(=O)n(C2OC(C)C(O)C2O)cc1F (stereo unspecified) | 35.1 µM | 35.3 µM |  | 33.5 µM | 30.5 µM | 62.2 µM | 32.7 µM | 33.5 µM | > 100 µM | 35.5 µM |  |  |  |  |  |  |
| CC(C)Oc1cccc(N2C(CCc3c[nH]c4ccc(Br)cc34)=NS(=O)(=O)c3cnccc32)c1 | > 100 µM | > 100 µM | > 100 µM | > 100 µM | > 100 µM | 92 µM | > 100 µM | > 100 µM | > 100 µM | > 100 µM |  |  |  |  |  |  |
| COc1cc2c(cc1O)NC(=O)[C@@H]1C[C@@H](O)CN1C2=O | > 100 µM | > 100 µM | > 100 µM | > 100 µM | > 100 µM | > 100 µM | > 100 µM | > 100 µM | > 100 µM | > 100 µM |  |  |  |  |  |  |
| Cc1ccc(S(=O)(=O)OCCN(CCOS(=O)(=O)c2ccc(C)cc2)c2ccc(C=O)cc2)cc1 | > 100 µM | 91 µM | > 100 µM | > 100 µM | 44.4 µM | > 100 µM | > 100 µM | > 100 µM |  | 61 µM |  |  |  |  |  |  |
| Clc1[nH]nc2ccccc12 | > 100 µM | > 100 µM | > 100 µM | > 100 µM | > 100 µM | > 100 µM | > 100 µM | > 100 µM |  | > 100 µM |  |  |  |  |  |  |
| O=[N+]([O-])/C=C/c1cc(Cl)c(/C=C/[N+](=O)[O-])cc1Cl | 3.25 µM | 5.02 µM |  | 4.37 µM | 4.17 µM |  | 22.5 µM |  |  | 5.25 µM |  |  |  |  |  |  |
| COc1ccccc1N=Nc1c(O)ccc2ccccc12 | > 100 µM | 36.2 µM and 96.1 µM | > 100 µM | > 100 µM | > 100 µM | > 100 µM | > 100 µM |  | > 100 µM | > 100 µM | 4.42 µM and 19.5 µM | 33.6 µM and 85 µM | 41.5 µM and > 100 µM |  |  |  |
| Cc1nc(C(=Nc2ccc(Br)cc2)Nn2cnnc2)no1 | > 100 µM | > 100 µM | > 100 µM | > 100 µM | > 100 µM | > 100 µM | > 100 µM |  |  | > 100 µM |  |  |  |  |  |  |
| Nc1c(C(=O)O)c2ccc([N+](=O)[O-])cc2c(=O)n1-c1nc2ccccc2s1 | > 100 µM | > 100 µM | > 100 µM | > 100 µM | > 100 µM | > 100 µM | > 100 µM |  | > 100 µM |  |  |  |  |  |  |  |

| Compound | TGI (BT-549 breast) | TGI (EKVX NSCLC) | TGI (K-562 leukemia) | TGI (M14 melanoma) | TGI (MDA-MB-435) | TGI (MOLT-4 leukemia) | TGI (NCI-H23 lung) | TGI (SF-539 CNS) | TGI (SR leukemia) | TGI (UACC-257 melanoma) | GI50 (EKVX NSCLC) | GI50 (M14 melanoma) | GI50 (UACC-257 melanoma) | GI50 (BT-549 breast) | GI50 (MDA-MB-435) | GI50 (MOLT-4 leukemia) |
| --- | --- | --- | --- | --- | --- | --- | --- | --- | --- | --- | --- | --- | --- | --- | --- | --- |
| CC1=NC(=N)N=C(C)C1N=Nc1ccc2nc(C)[nH]c2c1 (stereo unspecified) | > 100 µM | > 100 µM | > 100 µM | > 100 µM | > 100 µM | > 100 µM | > 100 µM | > 100 µM |  | > 100 µM |  |  |  |  |  |  |
| Cc1cc2nc(N3C(=O)/C(=C/Cc4ccco4)N=C3c3ccccc3)sc2cc1C | > 100 µM | > 100 µM | > 100 µM | > 100 µM | 50.5 µM | > 100 µM |  | > 100 µM | > 100 µM | > 100 µM |  |  |  |  |  |  |
| COc1cc2c(cc1OC)C1=C(C=O)c3ccc(OC)c(OC)c3C(O)N1CC2 (stereo unspecified) | 70.1 µM | > 100 µM |  | 78.1 µM | > 100 µM | > 100 µM | 57.1 µM | 64.8 µM |  | 50 µM |  |  |  |  |  |  |
| CC(C)=CC1C(C(=O)OCc2cc3c(cc2Cl)OCO3)C1(C)C (stereo unspecified) | > 100 µM | 80 µM | > 100 µM | > 100 µM | > 100 µM | 31.5 µM | > 100 µM |  | 33.4 µM | 48.1 µM |  |  |  |  |  |  |
| O=C(Nc1cccc2ccccc12)c1cc2ccccc2oc1=O | > 100 µM |  | > 100 µM | > 100 µM | > 100 µM | > 100 µM | > 100 µM | 81.8 µM | > 100 µM | > 100 µM |  |  |  |  |  |  |
| CN(Cc1cnc2nc(N)nc(N)c2n1)c1ccc(C(=O)NC(CCC(=O)O)C(=O)O)c2ccccc12 (stereo unspecified) | > 1000 µM | > 1000 µM | > 1000 µM | > 1000 µM | > 1000 µM | > 1000 µM | > 1000 µM |  | > 1000 µM |  | > 1000 µM |  | < 0.0363 µM | > 1000 µM |  |  |
| COC(=O)C(Cc1ccccc1)NC(=O)C(CNC(=O)OCc1ccccc1)C(=O)OCc1ccccc1 (stereo unspecified) | > 100 µM |  | > 100 µM | > 100 µM and 26.8 µM | > 100 µM | > 100 µM and 30.3 µM | > 100 µM |  | > 100 µM |  |  | > 100 µM and 10.2 µM |  |  | > 100 µM and 44.5 µM | > 100 µM and 10.4 µM |
| CCc1c(O)nc(Nc2nc3ccccc3[nH]2)[nH]c1=O | > 100 µM |  | > 100 µM | > 100 µM | > 100 µM |  | > 100 µM | > 100 µM | > 100 µM | > 100 µM |  |  |  |  |  |  |
| CC(=O)CCC1(C(=O)OCC(C)C)CCCC1=O (stereo unspecified) | > 100 µM | > 100 µM | > 100 µM | > 100 µM | > 100 µM | > 100 µM | > 100 µM | > 100 µM |  | > 100 µM |  |  |  |  |  |  |
| CC(C)(C)C(=O)c1c(O)c2ccccc2c2ccccc2c1=O | 91.6 µM | > 100 µM |  | > 100 µM | > 100 µM | > 100 µM | > 100 µM | > 100 µM |  | > 100 µM |  |  |  |  |  |  |
| CC(=O)OC12c3ccccc3C(c3ccccc31)C1C(=O)N(N=C(C)C)C(=O)C12 (stereo unspecified) | > 100 µM | > 100 µM | > 100 µM | > 100 µM |  | > 100 µM | > 100 µM | > 100 µM | > 100 µM | > 100 µM |  |  |  |  |  |  |
| CC(C)CNP(=O)(NCC(C)C)Oc1ccc(CC(NC(=O)OCc2ccccc2)C(=O)OCc2ccccc2)cc1 (stereo unspecified) | 52.4 µM | 77.2 µM | 59.4 µM | 67.7 µM | 22.8 µM | 41.1 µM | 32.3 µM |  | 29.2 µM | 59.1 µM |  |  |  |  |  |  |
| O=c1[nH]nc(Nc2ccc(Cl)cc2)c2nnn(C3CCCCC3)c12 | > 100 µM | > 100 µM | > 100 µM | > 100 µM | > 100 µM |  | > 100 µM | > 100 µM | 43.3 µM | > 100 µM |  |  |  |  |  |  |
| C=CCOC(C)(C)C1=CCC(C)CC1 (stereo unspecified) | > 100 µM | > 100 µM |  | > 100 µM | > 100 µM | > 100 µM | > 100 µM | > 100 µM |  | > 100 µM |  |  |  |  |  |  |
| Cc1cccc2c1nc1n2C(=O)c2ccccc2-1 | > 100 µM | > 100 µM | > 100 µM | > 100 µM |  | > 100 µM | > 100 µM | > 100 µM | > 100 µM | > 100 µM |  |  |  |  |  |  |
| COC(=O)c1c(O)ccc2c1c1c(n2Cc2ccc(OC)cc2)C(=O)c2ccccc2C1 | > 100 µM |  | > 100 µM | > 100 µM | > 100 µM | > 100 µM | > 100 µM | > 100 µM | > 100 µM | > 100 µM |  |  |  |  |  |  |
| CC(C)(NO)/C(=N\O)c1ccccc1 | > 10 µM | > 10 µM | > 10 µM | > 10 µM | > 10 µM | > 10 µM | > 10 µM |  | > 10 µM | > 10 µM |  |  |  |  |  |  |
